{
  "source": "paper PMC5335257",
  "about": "“Promoting in vivo remyelination with small molecules: a neuroreparative pharmacological treatment for Multiple Sclerosis” (Scientific Reports, 2017)",
  "key": {"[1]": {"tested_on": "cerebellar slices demyelinated with LPC", "assay": "Ex vivo remyelination in cerebellar slice cultures demyelinated with LPC", "type": "cell-based, CD1 P7 mice", "details": "5 μM, 3 days post lesion (3DPL)", "experimental": "The protocol used was modified from previously described. CD1 P7 mice were decapitated, and their cerebella were dissected into ice-cold HBSS (Invitrogen). 300 μm sagittal slices of cerebellum were cut using a McIllwain tissue chopper, placed on Millicell-CM organotypic culture inserts (3 slices per insert; Millipore) in a medium containing HBSS:BME: horse serum (1:2:1, Invitrogen), 28 mM D (+) - glucose (Normapur), […] L-Glutamine (Invitrogen) and 100 U/mL penicillin, 0.1 mg/mL streptomycin and 0.25 μg/ml Amphotericin B antibiotic anti-mycotic solution (Sigma) and maintained at 5% CO2 and 37 °C. Medium was changed every two days, and after 7 days in culture, demyelination was induced by addition of 0.5 mg/ml LPC (Sigma) to the medium for 15 h. After that, slices were treated with fresh medium containing PDE7-GSK3 or GSK3 inhibitors (VP1.15, VP3.15 or TDZD8; 5 μM). Cultures were maintained for 1 or 3 days post lesion (DPL), and then fixed for 40 minutes and immunostained with anti-MBP antibodies (myelin basic protein –as a marker of myelin; 1:200; Serotec; Cat#MCA4095) and anti-neurofilament antibody (as a marker of axons; 1:200; Abcam; Cat#ab8135). Fluorescence images were taken on a confocal SP5 resonant scanner (Leica Microsystems) at 1μm intervals in white matter areas at x40 magnification. The photographs were merged and co-localisation of both markers was quantified with Image J software using the colocalization highlighter plugin. This measurement was related to the area occupied by axons (neurofilament staining) and normalized with control values showing the data as the mean normalized myelination index ± SEM. Quantification was made in at least three independent experiments."}, "[2]": {"tested_on": "corpus callosum of cuprizone-fed mice", "assay": "In vivo remyelination, cuprizone demyelination model", "parameters": "species or system C57/BL6 male mice", "experimental": "The protocol used was modified from previously described. Demyelination was induced by feeding 8 weeks old male C57/BL6 mice ad libitum with 0.2% cuprizone (bis-cyclo-hexanone-oxaldihydrazone; Sigma) mixed with milled chow (Altromin) for 5 weeks. A control group was maintained in the same conditions but fed with the chow without cuprizone. After cuprizone withdrawal, mice were intraperitoneally injected on 3 alternate days with PDE7-GSK3 inhibitors (VP1.15 or VP3.15; 10 mg/kg of animal) using a solution of the compound (100 mg/mL in DMSO) diluted 1:50 in a solution of 5% Tocrisolve (Tocris, UK) in distilledwater[36] or with the vehicle. 1 week after the cuprizone withdrawal, mice were transcardially perfused with 4% PFA in phosphate buffer. Another group was maintained for 3 weeks after cuprizone withdrawal and injected with 3 doses per week on alternate days of the PDE7-GSK3 inhibitors (10 mg/kg of animal per dose see above) or the vehicle and then perfused. The corpus callosum of three animals per condition was studied. For histological examination, forebrain coronal sections (20 μm) were taken of the rostral part of the corpus callosum as previously described[80][81] and stained with eriochrome cyanine using a standard protocol in order to study the myelin. Briefly, cryosections on glass slides were immersed in acetone for 5 minutes, dried and submerged in eriochrome cyanine solution (Sigma) for 1 hour and then differentiated in 5% (w/v) iron alum for 5–10 minutes, followed by a second differentiation with borax-ferricyanide solution for 5 minutes. The stained area was measured with the Image J software and related to the total analyzed area. For the immunofluorescence analysis, tissue sections were stained with anti-MBP (1:200; Serotec; Cat#MCA4095) for myelin, anti-PDGFRα (1:200; Santa Cruz; Cat#sc338) for OPCs, anti-CC1 (1:100; Calbiochem, Cat#OP80) and anti-GFAP (Glial fibrillary acidic protein; 1:200; Dako; Cat#Z0334) for astrocytes, and tomato lectin (TL; 1:67; Sigma; Cat#L0651) for microglia. Optical images were acquired using an Olympus BX61 microscope and fluorescence images were taken using a DFC480 FX digital camera (Leica) coupled to a Leica DM5000 B microscope or a confocal SP5 resonant scanner (Leica). Myelin staining (with MBP and eriochrome cyanine) and CC1 staining were quantified by taking pictures of non-overlapping fields of coronal sections of the corpus callosum, between the lateral ventricles (2 fields per section, 5–6 sections of each mice; using a x20 objective) and by measuring the fluorescence intensity or blue staining using the Image J software. The number of OPCs per field was also counted in pictures of the midline of the corpus callosum using the x40 objective (4–6 sections per mice). Astrocytes and microglia were evaluated in pictures of the same area of the corpus callosum using the x40 objective and quantified by measuring the area occupied by GFAP or TL staining respectively using the Image J software (4–6 sections per mice). Data were expressed as the mean ± SEM."}, "[3]": {"tested_on": "corpus callosum of LPC-injected mice", "assay": "In vivo remyelination, LPC demyelination model", "parameters": "species or system C57/BL6 male mice", "details": "10 mg/kg i.p. from 9 dpi", "experimental": "Anaesthetized 8 week old C57/BL6 male mice were injected with 2 μl of 1% LPC through a hole drilled in the skull at stereotactic coordinates 1.2 mm posterior, 0.5 mm lateral, 1.4 mm deep to the bregma over 4 minutes using a 30-gauge needle attached to a Hamilton syringe, driven by a KD Scientific Nano pump, for 4 minutes to reduce backflow as previously described. At 9 days post injection (dpi), the first intraperitoneal dose of PDE7-GSK3 inhibitors (VP1.15 or VP3.15; 10 mg/kg of animal) was injected using the same solution detailed above for the cuprizone model. Each inhibitor was injected into a group of 10 mice and another group of 10 mice was injected with the vehicle. Two days after, a second dose was injected (11 dpi) and 5 mice of each group were perfused at 14 dpi with 4% PFA and 2% glutaraldehyde (GTA) in phosphate buffer. The remaining 5 animals of each group received a third injection of inhibitors (15 dpi) and were perfused at 21 dpi. A control group of 3 non-lesioned and non-treated mice was used as control. Fixed brains were post-fixed in 1% GTA for 7 days and then coronally cut into 1 mm slices. The slices containing the injected areas were selected and the area of interest was cut and processed for electron microscopy into a resin (Araldite/TAAB 812 Resin Kit, TAAB) following manufacturer instructions.\nIn order to detect the injured areas for investigation, sagittal semi-thin sections (1 μm) were cut using an ultramicrotome (Leica) and stained with toluidine blue. Ultra-thin sections (60 nm thick) were cut and stained in uranyl acetate and lead citrate and the ultrastructure was analysed taking images with a GatanOrius CCD camera coupled to a transmission electronic microscope (Philips CM120). The percentage of myelinated fibres and the thickness of myelin sheaths were examined. The mean percentage of myelinated fibres was measured from 10 fields per animal. Grids were overlaid onto the images and all axons intersecting with the grid lines were counted as myelinated or not[83][84]. The thickness of myelin around myelinated fibres was expressed as a g-ratio (axon perimeter divided by myelinated fibre perimeter) using ImageJ by tracing around a minimum of 100 individual fibres per mouse, using a pen and electronic pad (Bamboo pad, Wacom). To select the fibres randomly, a grid composed by 8 μm[2] squares was overlaid onto the images and fibres in alternate squares were measured. Data were expressed as the mean ± SEM."}, "[4]": {"tested_on": "PDE7", "parameters": "method as in PMID 24437940", "details": "read-out: PDE7 inhibition IC50; cited from earlier work"}, "[5]": {"tested_on": "GSK-3", "parameters": "method as in PMID 24437940", "details": "read-out: GSK-3 inhibition IC50; cited from earlier work"}, "[6]": {"tested_on": "OPCs", "parameters": "method as in PMID 23661015", "details": "cited from earlier work"}, "[7]": {"parameters": "method as in PMID 23077723, PMID 25264825", "details": "cited from earlier work"}, "[8]": {"tested_on": "spinal cord injury models", "parameters": "method as in PMID 21297958, PMID 23077723", "details": "spinal cord injury models (as well as EAE); cited from earlier work"}},
  "note": "Entries after “also recorded” stand apart in the source; their conditions may differ.",
  "data": [
    {"smiles": "OCC/N=c1/nc(-c2ccccc2)n(-c2ccccc2)s1", "note": "[VP1.15]", "values": [
      {"measurement": "remyelination (normalized myelination index)", "setting": "[1]", "result": "increased"},
      {"measurement": "myelin staining (eriochrome cyanine) in corpus callosum vs vehicle", "setting": "[2]; 10 mg/kg i.p. on 3 alternate days, 1 week after cuprizone withdrawal", "result": "significantly higher myelin staining; also recorded: almost complete remyelination"},
      {"measurement": "myelin quantification by MBP immunodetection", "setting": "[2]; 10 mg/kg i.p., after cuprizone withdrawal", "result": "confirmed these results, with similar effects"},
      {"measurement": "microglial activation (TL staining) vs vehicle", "setting": "[2]; 1 week after cuprizone withdrawal", "result": "Neither VP1.15 nor VP3.15 induced changes"},
      {"measurement": "number of OPCs (PDGFRα+ cells) vs vehicle", "setting": "[2]; one week after cuprizone withdrawal", "result": "significantly lower number of OPCs"},
      {"measurement": "thickness of myelin sheaths (G-ratio) vs untreated demyelinated control", "setting": "[3]", "result": "increased the thickness"},
      {"measurement": "percentage of myelinated callosal fibers vs vehicle", "setting": "[3]; analysed at 14 or 21 dpi", "result": "increase"},
      {"measurement": "IC50", "setting": "[4]", "result": 1.1, "unit": "µM"},
      {"measurement": "IC50", "setting": "[5]", "result": 1.95, "unit": "µM"},
      {"measurement": "OPC differentiation (and survival) in vitro", "setting": "[6]", "result": "enhance OPC differentiation and survival"},
      {"measurement": "emetic side effects", "setting": "[7]", "result": "without emetic side effects"},
      {"measurement": "immunomodulatory effect", "setting": "[8]", "result": "immunomodulatory effect"}
    ]}
  ]
}
